One compound from patent US6689803B2, “Compositions and methods for treating surgical adhesions” (Angiotech Pharmaceuticals, Inc., priority 1996, dated 2004) can be followed below.

Series [1] deals with neutrophils. As to the kind of experiment: Neutrophil chemiluminescence assay (opsonized CPPD crystals or zymosan). It is filed as cell-based, human. As to conditions: Homo sapiens, Neutrophil, 28 μM, read-out: inhibition of the peak chemiluminescence response. The procedure: All experiments that studied neutrophil responses to crystals or zymosan in the presence of paclitaxel were performed using plasma opsonized CPPD or zymosan. Opsonization of crystals or zymosan was done with 50% heparinized plasma at a concentration of 75 mg of CPPD or 12 mg of zymosan per ml of 50% plasma Crystals or zymosan were incubated with plasma for 30 minutes at 37° C. and then washed in excess HBSS.
(§1) Neutrophil viability and purity was always greater than 90%.
A stock solution of LY290181 at 100 μM in HBSS was freshly prepared.
All chemiluminescence studies were performed at a cell concentration of 5,000,000 cells/ml in HBSS with CPPD (50 mg/ml). In all experiments 0.5 ml of cells was added to 25 mg of CPPD or 0.5 mg of zymosan in 1.5 ml capped Eppendorf tubes. 10 μl of luminol dissolved in 25% DMSO in HBSS was added to a final concentration of 1 μM and the samples were mixed to initiate neutrophil activation by the crystals or zymosan. Chemiluminescence was monitored using an LKB Luminometer (Model 1250) at 37° C. for 20 minutes with shaking immediately prior to measurements to resuspend the crystals or zymosan. Control tubes contained cells, drug and luminol (crystals absent).

For series [2], the system named is collagen-induced arthritis. The protocol:
Syngeneic female Louvain rats weighing 120 to 150 grams were injected intradermally with 0.5 mg of native chick collagen II (Genzyme, Boston, Mass.) solubilized in 0.1 M acetic acid and emulsified in FIA (Difco, Detroit, Mich.). […] The control and experimental animals were evaluated for disease severity both clinically and radiographically by individuals blinded to treatment groups.
The severity of inflammation for each limb was evaluated daily and scored based on standardized levels of swelling and periarticular erythema (0 being normal and 4 severe). Animals were evaluated radiographically on day 28 of the experiment. The radiographs of both hind limbs were graded by the degree of soft tissue swelling, joint space narrowing, bone destruction, and periosteal new bone formation. A scale of 0-3 was used to quantify each limb (0=normal, 1=soft tissue swelling, 2=early erosions of bone, 3=severe bone destruction and/or ankylosis). Histological assessment of the joints was completed at the conclusion of the experiment.
Delayed-type hypersensitivity (DTH) to CII was determined by a radiometric ear assay completed on day 28. Radiometric ear indices≧1.4 represent a significant response to CII. The presence of anti-CII IgG antibodies was determined by enzyme-linked immunosorbent assay (ELISA).

The subject of another series is stromelysin (MMP-3) mRNA. The experiment in a line: IL-1 induced stromelysin mRNA expression in chondrocytes (Northern blot). It is filed as cell-based.
The test system of series [3] is restenosis / intimal hyperplasia. The experiment in a line: Rat carotid artery balloon injury model of restenosis, perivascular treatment. It is filed as in vivo. As to conditions: paclitaxel-loaded (20%) polymers (EVA film or PCL paste), 2.5 mg perivascular; 14 and 28 days. The protocol: WISTAR rats weighing 250 to 300 g were anesthetized by the intramuscular injection of Innovar (0.33 ml/kg). Once sedated they were then placed under Halothane anesthesia After general anesthesia was established, fur over the neck region was shaved, the skin clamped and swabbed with betadine. A vertical incision was made over the left carotid artery and the external carotid artery exposed. Two ligatures were placed around the external carotid artery and a transverse arteriotomy was made. […] The endothelium was denuded by passing the inflated balloon up and down the carotid artery three times. The catheter was then removed and the ligature tied off on the left external carotid artery. […] The wound was then closed.

In series [4] the test system is neutrophils. The experiment in a line: Neutrophil degranulation assay (myeloperoxidase, lysozyme release). The series is classed as cell-based, human. The protocol:
as §1
One and a half milliliter Eppendorf tubes containing either 25 mg of CPPD or 1 mg of zymosan were preheated to 37° C. 0.5 ml of cells at 37° C. were added followed by vigorous shaking to initiate the reactions. At appropriate times, tubes were centrifuged at 10,000 g for 10 seconds and 0.4 ml of supernatant was stored at −20° C. for later assay.
Lysozyme was measured by the decrease in absorbance at 450 nm of a Micrococcus lysodeikticus suspension. Briefly, Micrococcus lysodeikticus was suspended at 0.1 mg/ml in 65 mM potassium phosphate buffer, pH 6.2 and the absorbance at 450 nm was adjusted to 0.7 units by dilution. The crystal (or zymosan) and cell supernatant (100 μl) was added to 2.5 ml of the Micrococcus suspension and the decrease in absorbance was monitored. Lysozyme standards (chicken egg white) in the 0 to 2000 units/ml range were prepared and a calibration graph of lysozyme concentration against the rate of decrease in the absorbance at 450 nm was obtained.
Myeloperoxidase (MPO) activity was measured by the increase in absorbance at 450 nm that accompanies the oxidation of dianisidine. 7.8 mg of dianisidine was dissolved in 100 ml of 0.1 M citrate buffer, pH 5.5 at […] by sonication. To a 1 ml cuvette, 0.89 ml of the dianisidine solution was added, followed by 50 μl of 1% Triton x 100, 10 μl of a 0.05% hydrogen peroxide in water solution and 50 μl of crystal-cell supernatant. MPO activity was determined from the change in absorbance (450 nm) per minute, Delta Å 450, using the following equation: […]

Usually inhibition stands for how much of the control response was suppressed.

Source text for stromelysin (MMP-3) mRNA: The blots were subsequently stripped and reprobed with ^32P-radiolabeled rat GAPDH cDNA, which was used as a housekeeping gene. […] The MMP-1 and MMP-3 expression levels were normalized with GAPDH.

On to `CC(=O)O[C@H]1C(=O)[C@@]2(C)[C@H]([C@H](OC(=O)c3ccccc3)[C@]3(O)C[C@H](OC(=O)[C@H](O)[C@@H](NC(=O)c4ccccc4)c4ccccc4)C(C)=C1C3(C)C)[C@]1(OC(C)=O)CO[C@@H]1C[C@@H]2O` [paclitaxel], for which the inhibition at 28 µM with neutrophils [1] (plasma opsonized CPPD) was found to be 52%; in the series with neutrophils [1] (plasma opsonized zymosan), 45%; with neutrophils [4] (Homo sapiens, Neutrophil, 28 μM, opsonized zymosan, after 9 minutes incubation, read-out: inhibition of MPO release) it was 50%. The radiographic disease result in series [2] (high- and low-dose suppression groups vs control) was “significantly less radiographic disease”. For the same compound, in series [2] (low- and high-dose suppression protocols, i.p. from day 9), the clinical symptoms entry was “significant clinical improvement”. The “IgG antibodies to type II collagen (ELISA)” value in series [2] (paclitaxel-treated rats vs control group) was “significantly lower”. For the same compound, in series [2] (prevention protocol), the “radiographic changes / clinical arthritis” value was “None of the rats in the paclitaxel arthritis prevention protocol manifested any radiographic changes or clinical arthritis”. Besides, in series [2] (prevention protocol: 1 mg/kg i.p. from day 2), the development of arthritis result is listed as “completely precluded development of the disease”. For the same compound, in series [2] (rat, in vivo), the “toxic effects of the treatment” value is reported as “few, if any toxic effects”. Further, the “concentration inhibiting stromelysin expression in vitro” value in the series with stromelysin (MMP-3) mRNA was 10^−6 M. Further, in the series on stromelysin (MMP-3) mRNA (10^−5 M, pretreatment 24 hours, IL-1), the “stromelysin mRNA levels” value is “complete inhibition”. In addition, in series [3], the restenosis entry was “completely prevented restenosis”. The lysozyme release result in the series with neutrophils [4] (28 μM, plasma opsonized CPPD) is given as “reduced lysozyme release”. For the same compound, the myeloperoxidase release entry in the series with neutrophils [4] (plasma opsonized CPPD (FIG. 5A: 28 μM)) is on record as “significantly inhibited CPPD-induced myeloperoxidase release at all times”.
